For three molecules, EC50 and Activity results are on record in ChEMBL document CHEMBL1140646, “Design of a partial PPARdelta agonist” (Bioorg Med Chem Lett, 2007).

The target in assay [1] is T1, Peroxisome proliferator-activated receptor delta (Homo sapiens, UniProt Q03181).
T1 sequence (Q03181 whole entry): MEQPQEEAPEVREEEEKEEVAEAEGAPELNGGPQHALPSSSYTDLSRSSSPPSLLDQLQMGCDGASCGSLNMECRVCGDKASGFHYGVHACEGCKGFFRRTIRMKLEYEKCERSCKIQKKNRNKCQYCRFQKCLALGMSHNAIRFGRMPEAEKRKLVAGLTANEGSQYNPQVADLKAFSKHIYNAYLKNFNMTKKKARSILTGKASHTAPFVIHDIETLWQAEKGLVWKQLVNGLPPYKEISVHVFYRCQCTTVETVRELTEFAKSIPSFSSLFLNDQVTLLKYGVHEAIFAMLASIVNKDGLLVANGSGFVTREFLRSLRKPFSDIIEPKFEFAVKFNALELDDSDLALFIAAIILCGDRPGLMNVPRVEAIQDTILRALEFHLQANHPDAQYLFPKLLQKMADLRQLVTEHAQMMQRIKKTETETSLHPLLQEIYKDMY

In assay [2] the target is T2, Peroxisome proliferator-activated receptor alpha (Homo sapiens) (UniProt Q07869).
T2 sequence (whole entry): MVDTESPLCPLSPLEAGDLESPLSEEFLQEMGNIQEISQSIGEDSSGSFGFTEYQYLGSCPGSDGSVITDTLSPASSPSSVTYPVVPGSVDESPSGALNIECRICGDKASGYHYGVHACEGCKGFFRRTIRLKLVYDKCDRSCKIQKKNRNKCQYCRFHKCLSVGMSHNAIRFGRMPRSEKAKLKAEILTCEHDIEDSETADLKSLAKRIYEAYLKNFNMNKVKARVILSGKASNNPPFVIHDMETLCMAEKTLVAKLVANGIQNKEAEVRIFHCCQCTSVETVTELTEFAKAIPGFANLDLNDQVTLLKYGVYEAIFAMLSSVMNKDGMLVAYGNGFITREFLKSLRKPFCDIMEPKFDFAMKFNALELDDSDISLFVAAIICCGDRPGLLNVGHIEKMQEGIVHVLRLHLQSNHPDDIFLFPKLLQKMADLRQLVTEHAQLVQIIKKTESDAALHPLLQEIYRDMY
Kind of assay: Agonist activity at human PPARalpha by transactivation assay relative to NNC61-4655. The format is functional.

Assay [3] deals with T3, Peroxisome proliferator-activated receptor gamma (Homo sapiens, UniProt P37231).
T3 sequence (P37231 whole entry): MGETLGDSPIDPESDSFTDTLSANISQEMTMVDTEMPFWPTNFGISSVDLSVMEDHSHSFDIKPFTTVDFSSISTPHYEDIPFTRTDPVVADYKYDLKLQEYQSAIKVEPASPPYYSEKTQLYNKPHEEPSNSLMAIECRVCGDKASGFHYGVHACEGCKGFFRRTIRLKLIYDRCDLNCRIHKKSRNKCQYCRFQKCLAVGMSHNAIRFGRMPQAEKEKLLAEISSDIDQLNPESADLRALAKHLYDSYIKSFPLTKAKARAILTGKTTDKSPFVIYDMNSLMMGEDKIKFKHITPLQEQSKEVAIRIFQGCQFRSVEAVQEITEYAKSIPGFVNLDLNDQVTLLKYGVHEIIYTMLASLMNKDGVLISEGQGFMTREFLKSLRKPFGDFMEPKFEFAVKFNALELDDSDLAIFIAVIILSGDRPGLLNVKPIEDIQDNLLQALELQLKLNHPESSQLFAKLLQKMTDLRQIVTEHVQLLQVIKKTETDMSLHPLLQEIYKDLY
The format is functional.

For assay [4], the target named is T4, Peroxisome proliferator-activated receptor alpha (Homo sapiens, UniProt Q07869).
T4 sequence (Q07869 whole entry): T2 sequence (whole entry)
Nature of the assay: Agonist activity at human PPARalpha by transactivation assay. The format is functional.

Usually EC50 stands for the concentration at which the effect is half-maximal. The low end stands for a more potent agent, the high end for a less potent agent. With `O=C(O)COc1ccc(Sc2cc(C#CCN3CCOCC3)nc(C#Cc3ccc(C(F)(F)F)cc3)c2)c2c1CCC2`, in assay [1], the EC50 was found to be 130 nM. The same molecule yielded an Activity in assay [2] of less than 10%.
`Cc1cc(SCc2sc(-c3ccc(C(F)(F)F)cc3)nc2C)ccc1OCC(=O)O` yielded an Activity in assay [2] of 68%.
As to `Cc1cc(Sc2cc(C#CCN3CCOCC3)nc(C#Cc3ccc(C(F)(F)F)cc3)c2)ccc1OCC(=O)O`, the figures for the EC50 in assay [1], in assay [3] and in assay [4] were 50 nM, 5500 nM and 100 nM, respectively. In assay [2], this molecule displayed an Activity of 50%.
